Counter-ions that a name gives are not always drawn. Like-named read-outs stand apart in the source and are kept apart here. Where a SMILES comes first, the peptide text is derived from it. [ ]: non-standard residue; d: D form. The star is where a group is joined. Sta = CC(C)C[C@H](N)[C@@H](O)CC(=O)O; Isovaleryl = CC(C)CC(=O)*
Experiments:
Test in all cases: cells
NCI-H716 cells = assay type: cell-based, Human
SW480 = assay type: cell-based; details: Homo sapiens
HeLa cells = assay type: cell-based; details: for EC50: Homo sapiens, HeLa, read-out: CellCycle G2/M
[1] = tested on: HCT116 cells treated with a GSK3β inhibitor; assay type: cell-based; details: Homo sapiens
HCT116 = assay type: cell-based; details: Homo sapiens
DLD-1 = assay type: cell-based; details: Homo sapiens
[2] = tested on: endothelial tube formation in co-cultures of ECFCs and ADSCs treated with VEGF; assay type: cell-based, human
[3] = tested on: nuclear β-catenin in C2C12 cells; assay type: cell-based
INS-1E cells = assay type: cell-based, rat
[4] = Homo sapiens; IC50 / EC50; NCI-H716; read-out: GLP 1 Secretion
[5] = SW480, basal, read-out: Basal_Viability ATP SW480
[6] = HCT-116, GSK3b inhibitor pretreated, read-out: GSK3b inh pretreated_Viability ATP HCT116
[7] = HCT-116, basal, read-out: Basal_Viability ATP HCT116
[8] = DLD-1, basal, read-out: Basal_Viability ATP DLD-1
[9] = Homo sapiens, IC50 / EC50; endothelial tube area, ADSC/ECFC co-culture; read-out: Anti-Angiogenesis
[10] = Mus musculus, C2C12, IC50 / EC50; C2C12 beta-catenin translocation; read-out: Wnt Pathway
[11] = Rattus norvegicus; IC50 / EC50; INS-1E; read-out: Insulin Secretion
[12] = Homo sapiens, NCI-H716; read-out: GLP 1 Secretion
[13] = SW480, basal, SW480, read-out: Basal_Viability ATP SW480
[14] = S2 Table, 20 = no response at highest concentration
[15] = HCT-116, HCT116 pretreated with GSK3b inhibitor, read-out: GSK3b inh pretreated_Viability ATP HCT116
[16] = HCT-116, basal, HCT116, read-out: Basal_Viability ATP HCT116
[17] = DLD-1, basal, DLD-1, read-out: Basal_Viability ATP DLD-1
[18] = Homo sapiens; read-out: Anti-Angiogenesis
[19] = Mus musculus, C2C12, S2 Table; module primary assay; 20 / 20.1 codes per legend; read-out: Wnt Pathway
[20] = Rattus norvegicus, INS-1E; read-out: Insulin Secretion
[21] = HCT-116, read-out: GSK3b inh pretreated_Viability ATP HCT116
[22] = Homo sapiens, NCI-H716; read-out: GLP1 sec. EC50
[23] = SW480, 72 h, Table 2, 72 h, Cell TiterGlo, non-adherent, 20 coded, read-out: SW480 viab. IC50
[24] = HCT-116, read-out: HCT-116 (GSK3β) viab. IC50, Table 2, GSK3β inhibitor LY2090314 20 nM, 72 h, Cell TiterGlo, 20 coded
[25] = HCT-116, 72 h, read-out: HCT-116 viab. IC50, Table 2, basal, 72 h, Cell TiterGlo, non-adherent, 20 coded
[26] = DLD-1, 72 h, Table 2, 72 h, Cell TiterGlo, non-adherent, 20 coded, read-out: DLD-1 viab. IC50
[27] = Rattus norvegicus, INS-1E; read-out: Ins. sec. EC50

## CCCCCCCCCCCCCCCC[N+](C)(C)Cc1ccccc1 [Cetalkonium chloride]
NCI-H716 cells; [4]
  EC50: > 10 µM
SW480; [5]
  IC50: 5.17 µM
HeLa cells; IC50 / EC50
  EC50: > 10 µM
[1]; [6]
  IC50: 6.25 µM
HCT116; [7]
  IC50: 3.47 µM
DLD-1; [8]
  IC50: 3.92 µM
[2]; [9]
  IC50: 2.53 µM
[3]; [10]
  EC50: > 10 µM
INS-1E cells; [11]
  EC50: > 10 µM

## CC(=O)N(O)CCCCCNC(=O)CCC(=O)N(O)CCCCCNC(=O)CCC(=O)N(O)CCCCCN [Deferoxamine]
NCI-H716 cells; [12]
  EC50: > 10 µM
SW480; [13]
  IC50: > 20 µM
HeLa cells; [14]
  EC50: > 10 µM
[1]; [15]
  IC50: > 20 µM
HCT116; [16]
  IC50: 8.55 µM
DLD-1; [17]
  IC50: > 20 µM
[2]; [18]
  IC50: 4.53 µM
[3]; [19]
  EC50: > 10 µM
INS-1E cells; [20]
  EC50: > 10 µM

## Nc1nc(=O)n([C@@H]2O[C@H](CO)[C@@H](O)[C@@H]2F)cc1I [Fiacitabine]
NCI-H716 cells; [4]
  EC50: > 10 µM
SW480; [5]
  IC50: > 20 µM
HeLa cells; IC50 / EC50
  EC50: > 10 µM
[1]; [6]
  IC50: > 20 µM
HCT116; [7]
  IC50: > 20 µM
DLD-1; [8]
  IC50: > 20 µM
[2]; [9]
  IC50: 3.47 µM
[3]; [10]
  EC50: > 10 µM
INS-1E cells; [11]
  EC50: > 10 µM

## CN1CC[C@H](c2c(O)cc(O)c3c(=O)cc(-c4ccccc4Cl)oc23)[C@H](O)C1 [Flavopiridol]
NCI-H716 cells; [4]
  EC50: > 10 µM
SW480; [5]
  IC50: 2.11 µM
HeLa cells; IC50 / EC50
  EC50: > 10 µM
[1]; [21]
  IC50: 0.297 µM
HCT116; [7]
  IC50: 16.7 µM
DLD-1; [8]
  IC50: 0.0684 µM
[2]; [9]
  IC50: 0.114 µM
[3]; [10]
  EC50: 0.191 µM
INS-1E cells; [11]
  EC50: > 10 µM

## CO[C@@H]1[C@@H](OC)[C@H](C)[C@@](O)(CC(=O)O)O[C@H]1[C@H](C)[C@H]1O[C@@]2(CC[C@@](C)([C@H]3CC[C@@](C)([C@@H]4O[C@@H]([C@H]5O[C@](C)(O)[C@H](C)C[C@@H]5C)C[C@@H]4O[C@@H]4C[C@H](OC)[C@@H](OC)[C@H](C)O4)O3)O2)C[C@H](O)[C@H]1C [Maduramicin ammonium]
NCI-H716 cells; [4]
  EC50: > 10 µM
SW480; [5]
  IC50: 1.45 µM
HeLa cells; IC50 / EC50
  EC50: > 10 µM
[1]; [6]
  IC50: 1.16 µM
HCT116; [7]
  IC50: 8.6 µM
DLD-1; [8]
  IC50: 1.08 µM
[2]; [9]
  IC50: 0.252 µM
[3]; [10]
  EC50: > 10 µM
INS-1E cells; [11]
  EC50: > 10 µM

## C[C@@H]1C[C@H]2[C@@H]3CCC4=CC(=O)C=C[C@]4(C)[C@@]3(Cl)[C@@H](O)C[C@]2(C)[C@@]1(OC(=O)c1ccco1)C(=O)CCl [Mometasone furoate]
NCI-H716 cells; [12]
  EC50: > 10 µM
SW480; [13]
  IC50: 4.89 µM
HeLa cells; [14]
  EC50: > 10 µM
[1]; [15]
  IC50: > 20 µM
HCT116; [16]
  IC50: 14.5 µM
DLD-1; [17]
  IC50: 8.42 µM
[2]; [18]
  IC50: 4.99 µM
[3]; [19]
  EC50: > 10 µM
INS-1E cells; [20]
  EC50: > 10 µM

## CC(C)CC(=O)N[C@H](C(=O)N[C@H](C(=O)N[C@@H](CC(C)C)[C@@H](O)CC(=O)N[C@@H](C)C(=O)N[C@@H](CC(C)C)[C@@H](O)CC(=O)O)C(C)C)C(C)C [Pepstatin] (Isovaleryl-VV[Sta]A[Sta]-OH)
NCI-H716 cells; [12]
  EC50: > 10 µM
SW480; [13]
  IC50: > 20 µM
HeLa cells; [14]
  EC50: > 10 µM
[1]; [15]
  IC50: 17.7 µM
HCT116; [16]
  IC50: > 20 µM
DLD-1; [17]
  IC50: > 20 µM
[2]; [18]
  IC50: 1.24 µM
[3]; [19]
  EC50: > 10 µM
INS-1E cells; [20]
  EC50: > 10 µM

## CC(C)OC(=O)OCOP(=O)(CO[C@H](C)Cn1cnc2c(N)ncnc21)OCOC(=O)OC(C)C [Tenofovir disoproxil fumarate]
NCI-H716 cells; [4]
  EC50: > 10 µM
SW480; [5]
  IC50: > 20 µM
HeLa cells; IC50 / EC50
  EC50: > 10 µM
[1]; [6]
  IC50: > 20 µM
HCT116; [7]
  IC50: > 20 µM
DLD-1; [8]
  IC50: 19.6 µM
[2]; [9]
  IC50: 3.84 µM
[3]; [10]
  EC50: > 10 µM
INS-1E cells; [11]
  EC50: > 10 µM

## CCCCCCCCCCCCCCCC[N+](C)(C)CCN(Cc1ccc(OC)cc1)c1ncccn1 [Tonzonium bromide]
NCI-H716 cells; [12]
  EC50: 17.8 µM
SW480; [13]
  IC50: 5.08 µM
HeLa cells; [14]
  EC50: > 10 µM
[1]; [15]
  IC50: 5.31 µM
HCT116; [16]
  IC50: 3.41 µM
DLD-1; [17]
  IC50: 4.05 µM
[2]; [18]
  IC50: 3.07 µM
[3]; [19]
  EC50: > 10 µM
INS-1E cells; [20]
  EC50: > 10 µM

## CN(C)/N=N/c1[nH]cnc1C(N)=O [dacarbazine]
NCI-H716 cells; [12]
  EC50: > 10 µM
SW480; [13]
  IC50: > 20 µM
HeLa cells; [14]
  EC50: > 10 µM
[1]; [15]
  IC50: > 20 µM
HCT116; [16]
  IC50: > 20 µM
DLD-1; [17]
  IC50: > 20 µM
[2]; [18]
  IC50: 4.59 µM
[3]; [19]
  EC50: > 10 µM
INS-1E cells; [20]
  EC50: > 10 µM

## Cc1nc(Nc2ncc(C(=O)Nc3c(C)cccc3Cl)s2)cc(N2CCN(CCO)CC2)n1 [dasatinib, reference compound]
NCI-H716 cells; [22]
  EC50: > 10 µM
SW480; [23]
  IC50: 7 µM
SW480; [13]
  IC50: 7.02 µM
HeLa cells; [14]
  EC50: > 10 µM
[1]; [24]
  IC50: > 20 µM
HCT116; [25]
  IC50: 11.9 µM
HCT116; [16]
  IC50: 11.9 µM
DLD-1; [26]
  IC50: 3.5 µM
DLD-1; [17]
  IC50: 3.52 µM
[2]; Homo sapiens; read-out: Anti-Angio IC50
  IC50: > 10 µM
[3]; Mus musculus, C2C12; read-out: Wnt Pathway
  EC50: 0.0067 µM
[3]; Mus musculus, C2C12; read-out: Wnt pot. EC50
  EC50: 0.007 µM
INS-1E cells; [27]
  EC50: > 10 µM

## Cc1ccc(S(=O)(=O)NC(=O)NN2CC3CCCC3C2)cc1 (stereo not drawn) [gliclazide, reference compound]
NCI-H716 cells; [22]
  EC50: > 10 µM
SW480; [23]
  IC50: > 20 µM
HeLa cells
  G2/M IC50 / EC50: 20 (values shown as 20 indicate that the compound was tested in concentration-response and showed no response at the highest concentration tested (e.g. IC50 > 20 μM))
HeLa cells; [14]
  EC50: > 10 µM
[1]; [24]
  IC50: > 20 µM
HCT116; [25]
  IC50: > 20 µM
DLD-1; [26]
  IC50: > 20 µM
[2]; Homo sapiens, Table 2; primary assay tube area; 20 = no response in concentration-response, 20.1 = inactive in single concentration testing; read-out: Anti-Angio IC50
  IC50: > 10 µM
[3]; Mus musculus, C2C12, Table 2; C2C12; […]; 20 / 20.1 coded; read-out: Wnt pot. EC50
  EC50: > 10 µM
INS-1E cells; [27]
  EC50: 1.8 µM
INS-1E cells; [20]
  EC50: 1.83 µM

## O=c1[nH]c(=O)n([C@H]2C[C@H](O)[C@@H](CO)O2)cc1I [idoxuridine]
NCI-H716 cells; [12]
  EC50: > 10 µM
SW480; [13]
  IC50: > 20 µM
HeLa cells; [14]
  EC50: > 10 µM
[1]; [15]
  IC50: > 20 µM
HCT116; [16]
  IC50: > 20 µM
DLD-1; [17]
  IC50: > 20 µM
[2]; [18]
  IC50: 0.681 µM
[3]; [19]
  EC50: > 10 µM
INS-1E cells; [20]
  EC50: > 10 µM

## CC[C@H](C)C(=O)O[C@H]1C[C@@H](C)C=C2C=C[C@H](C)[C@H](CC[C@@H]3C[C@@H](O)CC(=O)O3)[C@H]21 [lovastatin, reference compound]
NCI-H716 cells; Homo sapiens, NCI-H716, read-out: GLP 1 Secretion
  EC50: > 20 µM
SW480; SW480, read-out: Basal_Viability ATP SW480
  IC50: 4.73 µM
HeLa cells
  EC50: > 10 µM
[1]; [21]
  IC50: 7.36 µM
HCT116; HCT-116, read-out: Basal_Viability ATP HCT116
  IC50: 1.75 µM
DLD-1; DLD-1, read-out: Basal_Viability ATP DLD-1
  IC50: 19.2 µM
[2]; Homo sapiens, read-out: Anti-Angiogenesis
  IC50: 3.27 µM
[3]; Mus musculus, C2C12, read-out: Wnt Pathway
  EC50: > 10 µM
INS-1E cells; Rattus norvegicus, INS-1E, read-out: Insulin Secretion
  EC50: > 10 µM

Reference: publication PMC4503722, “Novel Phenotypic Outcomes Identified for a Public Collection of Approved Drugs from a Publicly Accessible Panel of Assays” (PLoS ONE, 2015)
